From paper PMC4186439, “Characterization of a novel brain barrier ex vivo insect-based P-glycoprotein screening model” (Pharmacology Research & Perspectives, 2014)
Values belong to the compound of their own block, whether it stands above or below them.

Columns and labels:
locust brain barrier [1] = system: locust brain barrier; parameters: method as in Andersson et al. [2013]; settings: locust ex vivo model; ref Andersson et al. [2013]; cited from earlier work
Pgp efflux transport = settings: 3 μmol/L, 5 min, without verapamil; Fig. 5; n = 3
Pgp transporter [2] = settings: locust brain barrier model; ref Nielsen et al. [2011]; cited from earlier work
Pgp transporter [3] = settings: locust ex vivo and mouse Pgp KO/WT; ref Andersson et al. [2013]; Doran et al. [2005]; cited from earlier work
[4] = system: Pgp transporter homologue (Mdr65); parameters: method as in Mayer et al. [2009]; settings: Drosophila melanogaster; ref Mayer et al. [2009]; cited from earlier work
locust brain barrier [5] = settings: for Concentration-dependent ex vivo brain uptake profile: exposure 3, 10, 30 and 100 μmol/L for 5 min, Fig. 3, n = 3
[6] = locust hemolymph; injection of 20 μL of 20 μmol/kg dose; samples at 0.08, 0.25, 0.75, 2 and 6 h; n = 6
Protocol: Clearance of test compounds from the hemolymph was measured by repeated sampling of 10 μL hemolymph from the individual locust at 5, 15, 45, 120, and 360 min after intrahemolymph administration (20 μL) of the test compound solution (20 μmol/kg body weight). The 10 μL hemolymph samples were added to microcentrifuge tubes (Eppendorf) containing 40 μL ice-cold insect buffer.

Pgp transporter [7] = settings: 3 and 10 μmol/L exposure, 5 min, with and without verapamil; Fig. 4; n = 3
Pgp transporter [8] = experiment: In vivo locust brain uptake (brain:hemolymph ratio) with or without co-injected Pgp inhibitor CsA; settings: 15 min after injection, data not shown

Compound: CC(NC(C)(C)C)C(=O)c1cccc(Cl)c1 (stereo not drawn) [Bupropion]
Ex vivo brain uptake after increased exposure concentrations (locust brain barrier [1]): more than dose-related

Compound: C=C[C@H]1C[N@@]2CC[C@H]1C[C@@H]2[C@@H](O)c1ccnc2ccc(OC)cc12 [Quinidine, quinidine]
Ex vivo brain uptake when exposure temperature raised from 2°C to 30°C (Pgp efflux transport): corresponding increase in quinidine uptake was not seen
Uptake into the locust brain with Pgp inhibitor verapamil (Pgp transporter [2]): significantly increased

Compound: CN(C)CCCC1(c2ccc(F)cc2)OCc2cc(C#N)ccc21 (stereo not drawn) [citalopram]
Pgp transporter efflux liability (Pgp transporter [3]): affected by Pgp transporter efflux

Compound: COC(=O)c1ccccc1-c1c2ccc(=N)cc-2oc2cc(N)ccc12 [Rho123, rhodamine 123]
Dm brain concentration when co-injected with the Pgp inhibitor CsA [4]: increases

Ratio of permeabilities (dynamic range of the locust ex vivo model) (locust brain barrier [5]; Cbz (high permeability) versus atenolol (low permeability)): ~64
Concentration-dependent ex vivo brain uptake profile (locust brain barrier [5]): linear increase
Ex vivo brain uptake when exposure temperature raised from 2°C to 30°C (Pgp efflux transport): markedly increased
Compound: NC(=O)N1c2ccccc2C=Cc2ccccc21 [Cbz, carbamazepine]

Compound: CC(C)NCC(O)COc1cccc2ccccc12 (stereo not drawn) [Propranolol, propranolol]
Elimination (drug elimination constant calculated from C = Coe^−kt) [6]: −0.98 ^1 h^−1

Compound: CN(C)C(=O)C(CCN1CCC(O)(c2ccc(Cl)cc2)CC1)(c1ccccc1)c1ccccc1 [Loperamide, loperamide]
Concentration-dependent ex vivo brain uptake profile (locust brain barrier [5]): increased more than linearly
Ex vivo brain uptake/concentration on co-exposure to verapamil (Pgp transporter [7]): significantly increased
Hemolymph concentration when injected alone or co-injected with CsA (Pgp transporter [8]): no difference
